Legend:
[1] = biological target: Cyclin-dependent kinase-like 3 (Homo sapiens) (UniProt Q8IVW4); experiment: Inhibition of CDKL3 (unknown origin) assessed as residual activity at 1000 nM by KINOMEscan analysis relative to control
[2] = biological target: Serine/threonine-protein kinase MARK2 (Homo sapiens) (UniProt Q7KZI7); experiment: Inhibition of MARK2 (unknown origin) assessed as residual activity at 1000 nM by KINOMEscan analysis relative to control
[3] = biological target: T1, Ephrin type-A receptor 3 (Homo sapiens) (UniProt P29320); experiment: Inhibition of EPHA3 (unknown origin) assessed as residual activity at 1000 nM by KINOMEscan analysis relative to control
T1 sequence (whole entry): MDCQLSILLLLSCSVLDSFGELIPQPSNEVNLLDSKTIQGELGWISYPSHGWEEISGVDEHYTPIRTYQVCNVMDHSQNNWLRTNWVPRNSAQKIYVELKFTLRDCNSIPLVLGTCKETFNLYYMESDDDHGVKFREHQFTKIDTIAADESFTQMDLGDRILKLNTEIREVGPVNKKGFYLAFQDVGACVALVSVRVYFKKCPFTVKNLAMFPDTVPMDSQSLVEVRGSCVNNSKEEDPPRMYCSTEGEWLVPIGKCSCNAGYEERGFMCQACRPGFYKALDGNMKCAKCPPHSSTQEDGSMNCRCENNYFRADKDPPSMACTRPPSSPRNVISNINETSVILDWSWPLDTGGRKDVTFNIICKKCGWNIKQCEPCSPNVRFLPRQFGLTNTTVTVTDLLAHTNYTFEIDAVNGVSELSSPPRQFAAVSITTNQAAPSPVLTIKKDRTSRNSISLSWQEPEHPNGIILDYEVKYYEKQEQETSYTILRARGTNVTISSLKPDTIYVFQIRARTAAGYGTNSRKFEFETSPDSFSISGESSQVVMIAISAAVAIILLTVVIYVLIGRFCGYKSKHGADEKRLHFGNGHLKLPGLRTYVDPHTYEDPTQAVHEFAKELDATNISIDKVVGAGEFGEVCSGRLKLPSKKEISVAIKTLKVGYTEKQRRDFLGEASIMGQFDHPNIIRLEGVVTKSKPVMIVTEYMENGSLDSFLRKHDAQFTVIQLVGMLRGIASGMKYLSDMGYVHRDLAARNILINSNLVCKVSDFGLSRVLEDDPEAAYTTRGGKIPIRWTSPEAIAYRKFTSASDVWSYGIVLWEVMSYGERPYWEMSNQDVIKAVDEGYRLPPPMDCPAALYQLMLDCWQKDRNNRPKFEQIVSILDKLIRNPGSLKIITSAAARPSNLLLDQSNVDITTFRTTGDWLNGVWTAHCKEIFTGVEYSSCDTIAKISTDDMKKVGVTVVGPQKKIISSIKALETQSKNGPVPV

[4] = biological target: T2, Aurora kinase A (Homo sapiens) (UniProt O14965); experiment: Inhibition of AURKA (unknown origin) assessed as residual activity at 1000 nM by KINOMEscan analysis relative to control
T2 sequence (whole entry): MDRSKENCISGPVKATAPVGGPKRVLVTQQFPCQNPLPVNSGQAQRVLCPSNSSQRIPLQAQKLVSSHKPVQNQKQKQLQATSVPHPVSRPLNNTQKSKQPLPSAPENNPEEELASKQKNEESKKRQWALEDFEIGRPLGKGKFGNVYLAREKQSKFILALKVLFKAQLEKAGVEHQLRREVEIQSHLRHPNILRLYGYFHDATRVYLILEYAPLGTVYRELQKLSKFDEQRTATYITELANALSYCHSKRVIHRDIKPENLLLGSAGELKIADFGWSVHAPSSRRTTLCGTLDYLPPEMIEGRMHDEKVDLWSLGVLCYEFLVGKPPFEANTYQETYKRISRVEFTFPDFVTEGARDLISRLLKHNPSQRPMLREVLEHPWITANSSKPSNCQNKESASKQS

[5] = biological target: T3, Ephrin type-B receptor 2 (Homo sapiens) (UniProt P29323); experiment: Inhibition of EPHB2 (unknown origin) assessed as residual activity at 1000 nM by KINOMEscan analysis relative to control
T3 sequence (whole entry): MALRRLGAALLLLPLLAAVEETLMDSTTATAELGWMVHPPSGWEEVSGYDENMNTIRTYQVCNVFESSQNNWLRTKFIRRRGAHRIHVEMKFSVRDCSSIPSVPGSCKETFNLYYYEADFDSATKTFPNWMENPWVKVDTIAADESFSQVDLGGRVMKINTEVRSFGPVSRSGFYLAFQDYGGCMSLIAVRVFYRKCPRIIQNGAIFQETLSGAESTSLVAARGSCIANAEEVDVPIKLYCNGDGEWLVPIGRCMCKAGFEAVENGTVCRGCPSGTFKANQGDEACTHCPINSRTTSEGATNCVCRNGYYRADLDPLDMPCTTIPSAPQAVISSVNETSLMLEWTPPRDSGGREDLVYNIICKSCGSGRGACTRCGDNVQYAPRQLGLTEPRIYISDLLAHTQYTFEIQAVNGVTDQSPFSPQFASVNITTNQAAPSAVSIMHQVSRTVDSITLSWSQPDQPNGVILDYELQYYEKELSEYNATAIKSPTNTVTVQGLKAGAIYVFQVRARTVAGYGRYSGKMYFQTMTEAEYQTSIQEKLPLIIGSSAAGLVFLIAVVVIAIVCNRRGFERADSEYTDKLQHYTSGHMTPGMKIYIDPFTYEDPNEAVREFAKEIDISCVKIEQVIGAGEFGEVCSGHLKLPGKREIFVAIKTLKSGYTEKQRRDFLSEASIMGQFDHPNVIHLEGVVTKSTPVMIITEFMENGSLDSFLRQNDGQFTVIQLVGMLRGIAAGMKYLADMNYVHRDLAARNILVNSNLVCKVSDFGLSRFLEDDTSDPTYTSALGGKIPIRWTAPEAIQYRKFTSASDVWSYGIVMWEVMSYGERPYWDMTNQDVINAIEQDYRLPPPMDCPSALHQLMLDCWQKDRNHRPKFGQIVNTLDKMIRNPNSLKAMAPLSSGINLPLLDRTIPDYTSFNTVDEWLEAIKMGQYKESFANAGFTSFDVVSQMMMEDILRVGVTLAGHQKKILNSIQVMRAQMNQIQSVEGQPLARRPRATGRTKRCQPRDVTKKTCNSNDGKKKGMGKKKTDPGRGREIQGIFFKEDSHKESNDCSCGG

[6] = biological target: Serine/threonine-protein kinase MRCK beta (Homo sapiens) (UniProt Q9Y5S2); experiment: Inhibition of MRCKB (unknown origin) assessed as residual activity at 1000 nM by KINOMEscan analysis relative to control
Sequence of Serine/threonine-protein kinase MRCK beta (Homo sapiens) (Q9Y5S2 whole entry): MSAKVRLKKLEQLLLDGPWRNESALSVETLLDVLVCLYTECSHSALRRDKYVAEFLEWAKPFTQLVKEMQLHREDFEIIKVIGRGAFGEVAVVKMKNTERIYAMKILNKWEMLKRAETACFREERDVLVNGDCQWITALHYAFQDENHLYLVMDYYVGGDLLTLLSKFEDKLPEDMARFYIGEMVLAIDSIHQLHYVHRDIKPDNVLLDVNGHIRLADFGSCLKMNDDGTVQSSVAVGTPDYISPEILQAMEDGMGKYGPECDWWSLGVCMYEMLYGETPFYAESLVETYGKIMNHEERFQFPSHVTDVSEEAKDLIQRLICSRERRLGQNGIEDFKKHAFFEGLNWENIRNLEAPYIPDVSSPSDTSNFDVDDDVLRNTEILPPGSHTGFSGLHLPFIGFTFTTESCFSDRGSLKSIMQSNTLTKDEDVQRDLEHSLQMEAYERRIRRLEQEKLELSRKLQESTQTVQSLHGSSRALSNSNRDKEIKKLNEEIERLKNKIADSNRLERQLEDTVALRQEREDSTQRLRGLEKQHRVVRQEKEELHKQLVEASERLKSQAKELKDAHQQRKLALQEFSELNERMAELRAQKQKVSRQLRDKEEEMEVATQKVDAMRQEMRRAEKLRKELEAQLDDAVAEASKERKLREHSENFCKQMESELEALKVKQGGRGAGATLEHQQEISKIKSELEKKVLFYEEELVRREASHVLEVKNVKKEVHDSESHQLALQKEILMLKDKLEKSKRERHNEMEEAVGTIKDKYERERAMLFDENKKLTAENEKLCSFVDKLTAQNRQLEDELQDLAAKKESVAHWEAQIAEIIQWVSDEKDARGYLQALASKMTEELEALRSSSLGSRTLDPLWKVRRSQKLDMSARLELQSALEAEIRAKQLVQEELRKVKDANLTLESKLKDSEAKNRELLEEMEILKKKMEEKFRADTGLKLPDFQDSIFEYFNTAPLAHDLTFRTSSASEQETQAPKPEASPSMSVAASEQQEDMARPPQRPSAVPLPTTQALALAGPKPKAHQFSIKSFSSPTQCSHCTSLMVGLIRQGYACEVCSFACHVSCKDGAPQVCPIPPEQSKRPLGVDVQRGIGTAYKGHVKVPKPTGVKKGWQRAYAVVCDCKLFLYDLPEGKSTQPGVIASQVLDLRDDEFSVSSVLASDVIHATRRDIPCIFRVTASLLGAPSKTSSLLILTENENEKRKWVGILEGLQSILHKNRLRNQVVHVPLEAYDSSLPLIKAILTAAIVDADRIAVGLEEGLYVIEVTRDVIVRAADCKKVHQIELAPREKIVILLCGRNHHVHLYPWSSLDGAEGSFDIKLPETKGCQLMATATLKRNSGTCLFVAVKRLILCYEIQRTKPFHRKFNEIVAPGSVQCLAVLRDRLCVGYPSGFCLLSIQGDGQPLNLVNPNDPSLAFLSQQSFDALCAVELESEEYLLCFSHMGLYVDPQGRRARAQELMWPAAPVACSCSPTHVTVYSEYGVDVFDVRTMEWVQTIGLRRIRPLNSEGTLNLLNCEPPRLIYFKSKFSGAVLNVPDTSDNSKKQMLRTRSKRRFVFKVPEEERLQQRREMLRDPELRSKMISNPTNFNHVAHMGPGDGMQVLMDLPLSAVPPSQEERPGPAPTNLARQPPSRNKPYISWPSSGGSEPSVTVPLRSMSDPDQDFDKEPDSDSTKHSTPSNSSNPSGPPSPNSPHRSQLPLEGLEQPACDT

[7] = tested on: Proto-oncogene tyrosine-protein kinase receptor Ret (Homo sapiens), P07949 [M918T]; experiment: Inhibition of RET M918T mutant (unknown origin) assessed as residual activity at 1000 nM by KINOMEscan analysis relative to control
Sequence of Proto-oncogene tyrosine-protein kinase receptor Ret (Homo sapiens), P07949 [M918T] (P07949 whole entry M918T): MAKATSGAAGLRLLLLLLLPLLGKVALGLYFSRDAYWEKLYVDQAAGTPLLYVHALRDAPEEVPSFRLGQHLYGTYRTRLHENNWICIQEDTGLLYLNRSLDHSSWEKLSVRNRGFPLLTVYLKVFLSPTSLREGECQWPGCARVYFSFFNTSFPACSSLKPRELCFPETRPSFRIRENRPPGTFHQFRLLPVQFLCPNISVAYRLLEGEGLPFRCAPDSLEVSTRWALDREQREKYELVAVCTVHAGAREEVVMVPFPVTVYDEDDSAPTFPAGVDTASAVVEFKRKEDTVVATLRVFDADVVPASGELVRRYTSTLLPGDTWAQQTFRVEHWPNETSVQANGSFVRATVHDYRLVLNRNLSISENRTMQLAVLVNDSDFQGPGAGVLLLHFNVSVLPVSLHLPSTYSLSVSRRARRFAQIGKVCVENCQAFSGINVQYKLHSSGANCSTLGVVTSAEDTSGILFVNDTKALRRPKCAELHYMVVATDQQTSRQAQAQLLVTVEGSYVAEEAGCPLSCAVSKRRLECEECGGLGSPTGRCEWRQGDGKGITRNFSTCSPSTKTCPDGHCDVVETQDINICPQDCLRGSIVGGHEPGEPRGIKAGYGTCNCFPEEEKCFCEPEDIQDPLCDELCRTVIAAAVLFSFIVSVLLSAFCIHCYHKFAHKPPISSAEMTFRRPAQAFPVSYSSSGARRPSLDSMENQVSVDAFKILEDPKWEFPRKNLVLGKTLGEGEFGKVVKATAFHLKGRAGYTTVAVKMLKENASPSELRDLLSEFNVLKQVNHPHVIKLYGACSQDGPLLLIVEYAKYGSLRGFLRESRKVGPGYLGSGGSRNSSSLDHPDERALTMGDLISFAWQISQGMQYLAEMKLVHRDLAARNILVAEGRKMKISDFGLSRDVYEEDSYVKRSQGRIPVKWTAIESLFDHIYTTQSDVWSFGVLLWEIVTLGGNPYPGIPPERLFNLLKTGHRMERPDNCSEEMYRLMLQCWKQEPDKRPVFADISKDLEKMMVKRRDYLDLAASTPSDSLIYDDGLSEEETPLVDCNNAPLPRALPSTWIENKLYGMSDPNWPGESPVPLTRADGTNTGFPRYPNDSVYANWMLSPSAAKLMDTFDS

[8] = biological target: Serine/threonine-protein kinase PAK 6 (Homo sapiens) (UniProt Q9NQU5); experiment: Inhibition of PAK6 (unknown origin) assessed as residual activity at 1000 nM by KINOMEscan analysis relative to control
Sequence of Serine/threonine-protein kinase PAK 6 (Homo sapiens) (Q9NQU5 whole entry, looked up): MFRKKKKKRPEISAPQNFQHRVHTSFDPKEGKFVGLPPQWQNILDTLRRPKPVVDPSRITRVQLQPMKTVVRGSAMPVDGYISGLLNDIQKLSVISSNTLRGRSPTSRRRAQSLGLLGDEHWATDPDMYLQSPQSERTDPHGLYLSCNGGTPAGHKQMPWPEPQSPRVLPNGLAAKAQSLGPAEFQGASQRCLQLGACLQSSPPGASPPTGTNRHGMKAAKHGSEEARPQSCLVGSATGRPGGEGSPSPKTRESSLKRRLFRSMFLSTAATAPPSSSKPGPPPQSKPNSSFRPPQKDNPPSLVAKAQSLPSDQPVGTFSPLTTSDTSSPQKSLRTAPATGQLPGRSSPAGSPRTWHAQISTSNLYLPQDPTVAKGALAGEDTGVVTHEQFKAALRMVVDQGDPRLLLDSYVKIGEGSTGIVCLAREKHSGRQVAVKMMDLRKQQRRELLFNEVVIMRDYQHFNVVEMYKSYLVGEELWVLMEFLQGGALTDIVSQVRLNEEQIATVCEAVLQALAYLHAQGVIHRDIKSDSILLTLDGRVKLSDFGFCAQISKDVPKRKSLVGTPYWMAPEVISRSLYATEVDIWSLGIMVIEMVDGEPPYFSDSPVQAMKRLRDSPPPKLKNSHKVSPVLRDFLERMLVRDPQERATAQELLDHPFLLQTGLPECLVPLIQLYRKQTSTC

Sequence of Serine/threonine-protein kinase MARK2 (Homo sapiens) (Q7KZI7 whole entry): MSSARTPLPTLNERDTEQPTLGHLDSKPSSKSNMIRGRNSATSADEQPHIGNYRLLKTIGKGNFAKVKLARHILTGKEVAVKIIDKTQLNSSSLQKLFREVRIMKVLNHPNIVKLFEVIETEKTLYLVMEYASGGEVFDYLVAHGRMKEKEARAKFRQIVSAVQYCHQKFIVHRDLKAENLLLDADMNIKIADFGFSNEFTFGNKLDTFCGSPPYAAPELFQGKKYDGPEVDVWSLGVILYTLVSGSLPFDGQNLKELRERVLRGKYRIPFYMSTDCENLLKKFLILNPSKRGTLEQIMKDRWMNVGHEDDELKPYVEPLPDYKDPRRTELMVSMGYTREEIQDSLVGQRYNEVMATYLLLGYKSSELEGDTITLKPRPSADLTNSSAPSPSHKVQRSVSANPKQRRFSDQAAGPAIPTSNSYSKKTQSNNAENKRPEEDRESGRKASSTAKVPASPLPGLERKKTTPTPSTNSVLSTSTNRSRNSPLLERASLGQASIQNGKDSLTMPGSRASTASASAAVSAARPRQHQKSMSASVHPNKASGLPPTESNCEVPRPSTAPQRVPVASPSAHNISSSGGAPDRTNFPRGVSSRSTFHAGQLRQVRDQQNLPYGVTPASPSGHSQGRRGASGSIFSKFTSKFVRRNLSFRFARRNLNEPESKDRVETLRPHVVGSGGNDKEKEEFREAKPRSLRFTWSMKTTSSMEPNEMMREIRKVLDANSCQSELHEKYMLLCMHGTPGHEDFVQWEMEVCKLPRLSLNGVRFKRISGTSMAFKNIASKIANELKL
Sequence of Cyclin-dependent kinase-like 3 (Homo sapiens) (Q8IVW4 whole entry, looked up): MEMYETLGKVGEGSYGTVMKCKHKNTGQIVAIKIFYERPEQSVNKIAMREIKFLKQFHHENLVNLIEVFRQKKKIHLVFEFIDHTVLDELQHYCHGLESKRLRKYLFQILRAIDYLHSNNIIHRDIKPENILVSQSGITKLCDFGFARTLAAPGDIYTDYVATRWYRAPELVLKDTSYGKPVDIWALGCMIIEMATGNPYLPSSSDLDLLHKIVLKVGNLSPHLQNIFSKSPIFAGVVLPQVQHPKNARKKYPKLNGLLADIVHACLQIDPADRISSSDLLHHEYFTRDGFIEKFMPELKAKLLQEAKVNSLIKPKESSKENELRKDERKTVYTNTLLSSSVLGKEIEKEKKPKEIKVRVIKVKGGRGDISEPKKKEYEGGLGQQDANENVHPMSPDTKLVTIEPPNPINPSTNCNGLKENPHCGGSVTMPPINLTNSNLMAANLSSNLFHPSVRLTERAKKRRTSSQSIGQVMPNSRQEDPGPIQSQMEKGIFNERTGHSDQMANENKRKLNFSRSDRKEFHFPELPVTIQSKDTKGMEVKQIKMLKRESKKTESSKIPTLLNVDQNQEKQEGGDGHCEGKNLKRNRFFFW

## COc1cc2nc(C)nc(N[C@H](C)c3cccc(-c4cn[nH]c4)c3)c2cc1OC
[1]
  Activity: 87%
[2]
  Activity: 100%
[3]
  Activity: 90%
[4]
  Activity: 89%
[5]
  Activity: 98%
[6]
  Activity: 56%
[7]
  Activity: 60%
[8]
  Activity: 88%

## COc1cc2ncnc(N[C@H](C)c3cccc4ccccc34)c2cc1OC
[1]
  Activity: 84%
[2]
  Activity: 75%
[3]
  Activity: 48%
[4]
  Activity: 91%
[5]
  Activity: 94%
[6]
  Activity: 100%
[7]
  Activity: 100%
[8]
  Activity: 91%
